Converted amounts (≈) assume the structure as drawn.

The MIC is the lowest concentration found to suppress growth.

This experiment has as its system Mycobacterium tuberculosis. The experiment is described as follows: Antimycobacterial activity against extensively drug resistant Mycobacterium tuberculosis H37Rv ATCC 27294 after 28 days by agar dilution method. The conditions noted are these: H37Rv ATCC 27294, 672 h. Type of experiment: functional. (In agar dilution the substance is mixed into plates at graded concentrations.)

The molecule `Cc1nn2c(/C=N/Nc3nc(-c4ccc(F)cc4)cs3)c(-c3ccc(Cl)cc3)nc2s1` came in with an MIC of 53.9 µM (≈ 25.3 µg/mL).
With `Cc1ccc(-c2nc3sc(C)nn3c2/C=N/Nc2nc(-c3ccc(Cl)cc3)cs2)cc1`, the lowest concentration to inhibit growth (MIC) was 53.9 µM (≈ 25 µg/mL).
For the molecule `Cc1ccc(-c2csc(N/N=C/c3c(-c4ccc(C)cc4)nc4sc(C)nn34)n2)cc1`, the MIC came to 56.3 µM (≈ 25 µg/mL).
Molecule `COc1ccc(-c2csc(N/N=C/c3c(-c4ccc(OC)cc4)nc4sc(C(F)(F)F)nn34)n2)cc1` registered an MIC of 94.3 µM (≈ 50 µg/mL).
In turn, `COc1ccc(-c2csc(N/N=C/c3c(-c4ccc(C)cc4)nc4sc(C)nn34)n2)cc1` registered an MIC of 109 µM (≈ 50 µg/mL).
For the molecule `Fc1ccc(-c2csc(N/N=C/c3c(-c4ccc(Cl)cc4)nc4sc(C(F)(F)F)nn34)n2)cc1`, the MIC turned out to be 12 µM (≈ 6.26 µg/mL).
In turn, `Cc1ccc(-c2csc(N/N=C/c3c(-c4ccc(Cl)cc4)nc4sc(C)nn34)n2)cc1` registered an MIC of 108 µM (≈ 50.1 µg/mL).
In the case of `COc1ccc(-c2nc3sc(C(F)(F)F)nn3c2/C=N/Nc2nc(-c3ccc(C)cc3)cs2)cc1`, the lowest concentration to inhibit growth (MIC) was 24.1 µM (≈ 12.4 µg/mL).
As for `COc1ccc(-c2nc3sc(C(F)(F)F)nn3c2/C=N/Nc2nc(-c3ccc(F)cc3)cs2)cc1`, the lowest concentration to inhibit growth (MIC) was 24.1 µM (≈ 12.5 µg/mL).
For `Cc1ccc(-c2nc3sc(C)nn3c2/C=N/Nc2nc(-c3ccc(F)cc3)cs2)cc1`, it took 13.9 µM (≈ 6.25 µg/mL) to inhibit growth (MIC).
On to `COc1ccc(-c2nc3sc(C)nn3c2/C=N/Nc2nc(-c3ccc([N+](=O)[O-])cc3)cs2)cc1`, for which the MIC came out at 12.7 µM (≈ 6.25 µg/mL).
`COc1ccc(-c2nc3sc(C)nn3c2/C=N/Nc2nc(-c3ccc(C)cc3)cs2)cc1` had an MIC of 109 µM (≈ 50 µg/mL).
Next, `Cc1ccc(-c2nc3sc(C)nn3c2/C=N/Nc2nc(-c3ccc([N+](=O)[O-])cc3)cs2)cc1`: 26.3 µM (≈ 12.5 µg/mL).
Next, `O=[N+]([O-])c1ccc(-c2csc(N/N=C/c3c(-c4ccc(Cl)cc4)nc4sc(C(F)(F)F)nn34)n2)cc1`: 91.1 µM (≈ 50.1 µg/mL); `COc1ccc(-c2csc(N/N=C/c3c(-c4ccc(OC)cc4)nc4sc(C)nn34)n2)cc1`: 105 µM (≈ 50 µg/mL); `COc1ccc(-c2nc3sc(C)nn3c2/C=N/Nc2nc(-c3ccc(F)cc3)cs2)cc1`: 108 µM (≈ 50 µg/mL).
Take `COc1ccc(-c2csc(N/N=C/c3c(-c4ccc(Cl)cc4)nc4sc(C)nn34)n2)cc1`: inhibition of growth (MIC) required 52.1 µM (≈ 25 µg/mL).
Next, `FC(F)(F)c1nn2c(/C=N/Nc3nc(-c4ccc(Cl)cc4)cs3)c(-c3ccc(Cl)cc3)nc2s1`: 92.9 µM (≈ 50.1 µg/mL).
In turn, `COc1ccc(-c2nc3sc(C(F)(F)F)nn3c2/C=N/Nc2nc(-c3ccc(Cl)cc3)cs2)cc1` showed an MIC of 93.6 µM (≈ 50.1 µg/mL).
Turning to `Cc1nn2c(/C=N/Nc3nc(-c4ccc(Cl)cc4)cs3)c(-c3ccc(Cl)cc3)nc2s1`, the MIC came out at 103 µM (≈ 50 µg/mL).
In the case of `COc1ccc(-c2csc(N/N=C/c3c(-c4ccc(Cl)cc4)nc4sc(C(F)(F)F)nn34)n2)cc1`, the MIC stood at 11.7 µM (≈ 6.26 µg/mL).
Turning to `Cc1ccc(-c2csc(N/N=C/c3c(-c4ccc(Cl)cc4)nc4sc(C(F)(F)F)nn34)n2)cc1`, it took 6.03 µM (≈ 3.13 µg/mL) to inhibit growth (MIC).
As to `COc1ccc(-c2nc3sc(C)nn3c2/C=N/Nc2nc(-c3ccc(Cl)cc3)cs2)cc1`, 26 µM (≈ 12.5 µg/mL) was the least that counted as inhibitory (MIC).
For `O=C(O)c1cn(C2CC2)c2cc(N3CCNCC3)c(F)cc2c1=O` [CIPROFLOXACIN] the value was 9.44 µM (≈ 3.13 µg/mL); for `CC[C@@H](CO)NCCN[C@@H](CC)CO` [ETHAMBUTOL], 15.3 µM (≈ 3.13 µg/mL).
As to `NNC(=O)c1ccncc1` [ISONIAZID], the MIC was 0.729 µM (≈ 0.1 µg/mL).

The record behind these values is ChEMBL document CHEMBL3779863, “Ionic liquid-promoted one-pot synthesis of thiazoleimidazo[2,1-b][1,3,4]thiadiazole hybrids and their antitubercular activity” (Medchemcomm, 2016).
